Common to all, as to assay: Ambit kinase profiling, competition binding
Assay [1] has as its target T1, BMPR1B (Homo sapiens, UniProt O00238).
T1 construct: purchased Ambit Biosciences (KINOMEscan)
Here is the method:
(§1) Also included in the kinase profile are four isoforms of PKC (δ, ε, η, θ) and eight isoforms of CAMKs (CAMKIα, δ, γ; CAMKIIα, β, δ, γ; CAMK4).
(§2) The global kinase profiling experiment was performed by Ambit Biosciences.

In assay [2] the target is T2, CAMKIIα (Homo sapiens, UniProt Q9UQM7).
T2 construct: purchased Ambit Biosciences (KINOMEscan)
T2 sequence (Q9UQM7 whole entry): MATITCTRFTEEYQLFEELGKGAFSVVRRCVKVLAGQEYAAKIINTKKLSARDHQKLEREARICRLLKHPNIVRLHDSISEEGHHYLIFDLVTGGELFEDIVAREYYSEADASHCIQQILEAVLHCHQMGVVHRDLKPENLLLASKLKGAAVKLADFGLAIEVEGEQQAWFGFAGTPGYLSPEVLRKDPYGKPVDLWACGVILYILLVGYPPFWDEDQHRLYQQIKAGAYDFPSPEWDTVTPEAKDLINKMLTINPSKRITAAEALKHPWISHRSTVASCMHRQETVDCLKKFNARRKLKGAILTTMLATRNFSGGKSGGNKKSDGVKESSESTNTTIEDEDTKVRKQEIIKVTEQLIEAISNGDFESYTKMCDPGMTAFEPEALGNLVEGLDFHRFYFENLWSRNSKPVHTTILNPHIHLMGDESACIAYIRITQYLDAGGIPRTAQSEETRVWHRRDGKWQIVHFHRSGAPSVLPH
Particulars: for competition: CAMKIIα, 10 µM. Here is the method: as §1, §2

Assay [3] deals with T3, CAMKIIβ (Homo sapiens, UniProt Q13554).
T3 construct: purchased Ambit Biosciences (KINOMEscan)
T3 sequence (Q13554 whole entry): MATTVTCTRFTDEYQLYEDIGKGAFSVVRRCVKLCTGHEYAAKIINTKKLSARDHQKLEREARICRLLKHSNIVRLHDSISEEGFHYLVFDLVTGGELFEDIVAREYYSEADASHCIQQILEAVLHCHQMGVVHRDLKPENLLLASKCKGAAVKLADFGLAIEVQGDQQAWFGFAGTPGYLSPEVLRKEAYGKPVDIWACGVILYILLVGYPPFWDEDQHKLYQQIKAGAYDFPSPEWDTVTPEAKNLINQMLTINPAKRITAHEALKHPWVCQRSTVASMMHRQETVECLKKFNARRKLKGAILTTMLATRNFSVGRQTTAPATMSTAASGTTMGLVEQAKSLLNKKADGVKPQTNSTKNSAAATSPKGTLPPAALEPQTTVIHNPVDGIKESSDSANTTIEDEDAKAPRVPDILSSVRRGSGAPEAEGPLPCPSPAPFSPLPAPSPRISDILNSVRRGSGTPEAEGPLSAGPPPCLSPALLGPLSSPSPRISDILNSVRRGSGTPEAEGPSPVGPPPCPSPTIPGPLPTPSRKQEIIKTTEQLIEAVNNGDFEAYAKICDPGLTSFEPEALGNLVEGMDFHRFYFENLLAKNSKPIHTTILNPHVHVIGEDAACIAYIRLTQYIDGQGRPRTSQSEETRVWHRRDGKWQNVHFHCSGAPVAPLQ
Particulars: for competition: CAMKIIβ, 10 µM. As for the experimental part: as §1, §2

Assay [4] deals with T4, CAMKIIδ (Homo sapiens, UniProt Q13557).
T4 construct: purchased Ambit Biosciences (KINOMEscan)
T4 sequence (Q13557 whole entry): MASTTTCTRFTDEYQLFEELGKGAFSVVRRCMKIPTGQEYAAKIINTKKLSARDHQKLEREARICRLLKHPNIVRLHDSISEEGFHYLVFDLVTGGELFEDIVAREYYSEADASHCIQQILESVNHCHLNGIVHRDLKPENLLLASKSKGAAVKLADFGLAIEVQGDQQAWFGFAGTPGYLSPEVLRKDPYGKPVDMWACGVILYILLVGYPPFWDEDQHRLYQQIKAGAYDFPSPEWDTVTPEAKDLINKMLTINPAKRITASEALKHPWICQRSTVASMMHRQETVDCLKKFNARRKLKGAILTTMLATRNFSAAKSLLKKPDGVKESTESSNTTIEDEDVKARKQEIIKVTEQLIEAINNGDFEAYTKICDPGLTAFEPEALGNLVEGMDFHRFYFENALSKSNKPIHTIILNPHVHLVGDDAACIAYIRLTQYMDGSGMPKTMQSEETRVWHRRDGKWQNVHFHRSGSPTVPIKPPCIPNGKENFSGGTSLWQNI
Particulars: for competition: CAMKIIδ, 10 µM. As for the experimental part: as §1, §2

The target in assay [5] is T5, CSNK1G1 (Homo sapiens, UniProt Q9HCP0).
T5 construct: purchased Ambit Biosciences (KINOMEscan)
T5 sequence (Q9HCP0 whole entry): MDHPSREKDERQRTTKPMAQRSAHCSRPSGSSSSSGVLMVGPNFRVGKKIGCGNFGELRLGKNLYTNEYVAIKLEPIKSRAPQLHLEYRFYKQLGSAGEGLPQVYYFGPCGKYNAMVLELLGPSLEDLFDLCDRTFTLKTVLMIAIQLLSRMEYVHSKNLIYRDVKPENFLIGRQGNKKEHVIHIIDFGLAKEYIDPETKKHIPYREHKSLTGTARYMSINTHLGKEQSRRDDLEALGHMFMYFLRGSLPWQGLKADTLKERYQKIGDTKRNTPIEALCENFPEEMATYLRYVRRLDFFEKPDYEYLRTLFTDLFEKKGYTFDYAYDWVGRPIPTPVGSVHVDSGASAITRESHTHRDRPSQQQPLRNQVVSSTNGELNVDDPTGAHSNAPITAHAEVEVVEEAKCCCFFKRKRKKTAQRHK
The conditions noted are these: for % Competition: 10 µM. Here is the method:
as §1, §2

Assay [6] concerns the target T6, GSK3B (Homo sapiens, UniProt P49841).
T6 construct: purchased Ambit Biosciences (KINOMEscan)
Here is the method:
as §1, §2

The target in assay [7] is T7, MEK3 (Homo sapiens, UniProt P46734).
T7 construct: purchased Ambit Biosciences (KINOMEscan)
T7 sequence (P46734 1-347): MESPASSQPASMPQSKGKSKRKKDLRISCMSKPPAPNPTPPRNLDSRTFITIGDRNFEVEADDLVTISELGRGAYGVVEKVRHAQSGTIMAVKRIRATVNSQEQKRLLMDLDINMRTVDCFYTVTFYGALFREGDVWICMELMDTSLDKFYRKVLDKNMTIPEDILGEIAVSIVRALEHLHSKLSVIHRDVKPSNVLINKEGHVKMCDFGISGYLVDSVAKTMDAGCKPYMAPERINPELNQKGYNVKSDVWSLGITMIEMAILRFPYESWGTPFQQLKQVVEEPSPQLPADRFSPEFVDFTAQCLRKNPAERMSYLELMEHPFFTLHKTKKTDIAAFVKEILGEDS
Here is the method:
as §1, §2

Assay [8] deals with T8, NLK (Homo sapiens, UniProt Q9UBE8).
T8 construct: purchased Ambit Biosciences (KINOMEscan)
T8 sequence (Q9UBE8 1-527): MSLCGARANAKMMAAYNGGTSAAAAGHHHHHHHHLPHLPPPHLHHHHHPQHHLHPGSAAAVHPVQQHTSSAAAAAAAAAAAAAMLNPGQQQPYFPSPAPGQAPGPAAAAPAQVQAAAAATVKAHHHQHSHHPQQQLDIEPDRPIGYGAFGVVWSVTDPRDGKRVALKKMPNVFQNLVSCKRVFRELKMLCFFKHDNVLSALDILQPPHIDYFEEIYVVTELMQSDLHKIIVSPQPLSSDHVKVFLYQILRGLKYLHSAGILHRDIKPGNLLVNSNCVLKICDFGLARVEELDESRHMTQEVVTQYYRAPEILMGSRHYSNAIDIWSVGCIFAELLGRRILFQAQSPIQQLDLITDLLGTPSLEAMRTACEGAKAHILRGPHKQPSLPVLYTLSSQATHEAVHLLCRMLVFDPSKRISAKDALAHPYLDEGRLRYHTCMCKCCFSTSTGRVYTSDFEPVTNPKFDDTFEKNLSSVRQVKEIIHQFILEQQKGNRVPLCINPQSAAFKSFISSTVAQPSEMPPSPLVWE
As for the experimental part: as §1, §2

For assay [9], the target named is T9, TAOK3 (Homo sapiens, UniProt Q9H2K8).
T9 construct: purchased Ambit Biosciences (KINOMEscan)
T9 sequence (Q9H2K8 1-898): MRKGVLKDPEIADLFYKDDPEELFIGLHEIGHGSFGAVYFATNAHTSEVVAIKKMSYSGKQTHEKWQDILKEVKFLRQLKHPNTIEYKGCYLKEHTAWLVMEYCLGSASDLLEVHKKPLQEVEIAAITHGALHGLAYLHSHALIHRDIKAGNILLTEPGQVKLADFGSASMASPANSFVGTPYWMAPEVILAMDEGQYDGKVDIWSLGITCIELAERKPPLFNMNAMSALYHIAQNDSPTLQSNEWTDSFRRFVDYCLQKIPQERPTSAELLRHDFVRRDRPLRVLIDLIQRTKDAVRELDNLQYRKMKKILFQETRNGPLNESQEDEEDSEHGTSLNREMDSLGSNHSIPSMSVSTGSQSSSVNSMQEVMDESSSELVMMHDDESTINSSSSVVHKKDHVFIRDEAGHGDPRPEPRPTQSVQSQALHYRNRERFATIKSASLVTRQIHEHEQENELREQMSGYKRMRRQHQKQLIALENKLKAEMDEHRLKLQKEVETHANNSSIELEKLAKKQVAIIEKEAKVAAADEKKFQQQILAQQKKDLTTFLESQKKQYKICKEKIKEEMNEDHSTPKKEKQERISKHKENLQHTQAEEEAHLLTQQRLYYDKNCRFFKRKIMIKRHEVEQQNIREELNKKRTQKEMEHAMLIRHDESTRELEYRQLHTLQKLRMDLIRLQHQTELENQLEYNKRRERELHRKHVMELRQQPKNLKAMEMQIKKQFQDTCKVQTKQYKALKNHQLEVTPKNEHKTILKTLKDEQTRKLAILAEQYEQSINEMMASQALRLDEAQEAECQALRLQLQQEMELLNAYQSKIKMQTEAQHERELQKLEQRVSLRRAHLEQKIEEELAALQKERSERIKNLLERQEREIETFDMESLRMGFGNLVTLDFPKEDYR
Here is the method: as §1, §2

Like-named read-outs stand apart in the source and are kept apart here.

T1 sequence (O00238 14-502): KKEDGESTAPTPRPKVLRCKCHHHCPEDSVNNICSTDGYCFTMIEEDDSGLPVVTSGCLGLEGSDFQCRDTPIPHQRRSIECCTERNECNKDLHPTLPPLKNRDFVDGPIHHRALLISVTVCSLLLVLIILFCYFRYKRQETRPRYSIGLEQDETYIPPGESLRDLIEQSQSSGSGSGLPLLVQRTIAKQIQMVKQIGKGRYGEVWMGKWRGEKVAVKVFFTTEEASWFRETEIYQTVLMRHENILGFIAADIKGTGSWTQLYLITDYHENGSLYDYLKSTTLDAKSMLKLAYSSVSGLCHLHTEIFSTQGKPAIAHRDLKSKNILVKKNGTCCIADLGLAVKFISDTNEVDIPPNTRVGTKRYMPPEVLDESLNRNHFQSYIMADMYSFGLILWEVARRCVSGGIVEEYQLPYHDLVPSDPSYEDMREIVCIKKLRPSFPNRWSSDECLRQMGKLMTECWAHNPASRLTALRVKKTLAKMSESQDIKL
T6 sequence (P49841 whole entry): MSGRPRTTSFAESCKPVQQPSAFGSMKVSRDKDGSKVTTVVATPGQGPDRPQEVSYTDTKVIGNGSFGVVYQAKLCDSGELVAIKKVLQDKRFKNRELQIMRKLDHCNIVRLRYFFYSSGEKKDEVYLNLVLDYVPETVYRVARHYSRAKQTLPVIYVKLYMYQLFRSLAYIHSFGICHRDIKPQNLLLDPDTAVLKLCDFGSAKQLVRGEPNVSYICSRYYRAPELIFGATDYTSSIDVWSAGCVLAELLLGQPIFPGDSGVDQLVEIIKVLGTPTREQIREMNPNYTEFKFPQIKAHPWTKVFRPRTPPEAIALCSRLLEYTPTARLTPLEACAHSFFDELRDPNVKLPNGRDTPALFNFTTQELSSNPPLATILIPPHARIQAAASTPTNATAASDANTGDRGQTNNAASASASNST

As for `Fc1ccc(-c2c(-c3ccncc3)[nH]c3nccnc23)cc1` [Compound 122], the inhibition at 10 µM in assay [1] (BMPR1B, 10 µM, read-out: % Competition) turned out to be 81%; in assay [6] (GSK3B, 10 µM, read-out: % Competition), 96%; in assay [7] (MEK3, 10 µM, read-out: % Competition) it was 99%; in [8] (NLK, 10 µM, read-out: % Competition) it was 98%; in [9] (TAOK3, 10 µM, read-out: % Competition), 80%. Besides, the competition in assay [2], in assay [3] and in [4] was below 50% each time. Moreover, in assay [5], the “% Competition” value was found to be 78%.

Regarding `Fc1ccc(-c2c(-c3ccncc3)[nH]c3nccnc23)cc1` [RO1155697-000-005], the inhibition at 10 µM was 81% in assay [1] (BMPR1B, compound concentration 10 uM, read-out: Percent Competition); below 50% in assay [2] (CAMK2A, compound concentration 10 uM, read-out: Percent Competition); below 50% in [3] (CAMK2B, compound concentration 10 uM, read-out: Percent Competition); below 50% in [4] (CAMK2D, compound concentration 10 uM, read-out: Percent Competition); 96% in [6] (GSK3B, compound concentration 10 uM, read-out: Percent Competition); 99% in [7] (MEK3, compound concentration 10 uM, read-out: Percent Competition). Further, the inhibition at 10 µM in assay [8] (NLK, compound concentration 10 uM, read-out: Percent Competition) was 98%; in assay [9] (TAOK3, compound concentration 10 uM, read-out: Percent Competition), 80%. Further, the “Percent Competition” value in assay [5] (compound concentration 10 uM) amounted to 78%.

In the case of `CC(O)CNc1cc(-c2[nH]c3cccnc3c2-c2ccc(F)cc2)ccn1` (stereo not drawn) [Compound 140], the inhibition at 10 µM in assay [1] (read-out: % Competition) was below 50%; in assay [6] (read-out: % Competition) it was below 50%; in assay [7] (read-out: % Competition), below 50%; in [8] (read-out: % Competition), 91%; in assay [9] (read-out: % Competition) it was below 50%. The competition in [2], in assay [3] and in assay [4] was below 50% each time. In [5], the “% Competition” value is 94%.
